Assay [1] concerns the target T1, Rhodobacter sphaeroides (Rb.s.) ADPG Ppase (Cereibacter sphaeroides, UniProt Q9RNH7).
T1 construct: made in house
Nature of the assay: ADPG Ppase enzyme assay (14C Glc-1-P to ADPGlucose) with ADPG borano analogs. Format: biochemical. The arrangement: *2.2: unit not given here. The note with it: for inhibition of Rb.s. ADPG Ppase: 500 μM. The text has this: Assaying for ADPGlc synthesis activity involves measuring the amount of 14-C labeled Glc-1-P converted to ADPGlucose (Preiss, J., Shen, L., Greenberg, E., and Gentner, N. (1966) Biochemistry 5, 1833-1845). Briefly, unreacted Glc-1-P is separated from product by the following steps: 1) digestion with alkaline phosphatase (thus removing the negatively charged phosphate); 2) spotting an aliquot of the reaction mixture on to positively charged DE-81 filters (Whatman); and 3) washing the filters with water (thus removing the now neutral C-14 glucose).
To assess the effect of a putative inhibitor, enzyme assays are performed at a subsaturating concentration of substrate (depending on the enzyme, ATP=0.2-1 mM, Glc-1-P=0.5 mM) under standard conditions in the absence and presence of the major activator for each enzyme (1-5 mM depending on enzyme). In this way, the effect of the inhibitors can be evaluated under the range of the expected in vivo conditions. Initial screening of a putative inhibitor typically includes testing at two concentrations (˜25 μM and 1 mM)±major activator with appropriate controls and blanks for a total of 9 assays/inhibitor/enzyme (2 control assays—appropriate enzyme concentrations in the absence of inhibitor, 4 experimental assays; 1 blank in the absence of inhibitors; 2 blanks in the presence of inhibitor (no activator required).
The APDGlc Ppase from Rhodobacter sphaeroides has been used as a model enzyme for initial testing of inhibitors as it has been cloned, sequenced, and expressed in the inventor's laboratory (Meyer et al (1999) Arch. Biochem. Biophys. 372, 179-188; Igarashi, R. Y. and Meyer, C. R. (2000) Arch. Biochem Biophys. 376, 47-58) and the purified recombinant enzyme is readily available. Further, this particular enzyme has the most complex regulation (having partial overlap with nearly every type of ADPG Ppase) and has sufficient homology (ranging from ˜40-70% similarity) to the enzyme primary sequence from the mentioned pathogenic bacteria.
1. OVERVIEW: 2 analogs (ANALOG; stereoisomers I, II) of adenosine-α-P-boranodiphosphoglucose were tested for inhibiting activity against the ADPG Ppase enzyme from Rhodobacter sphaeroides (Rb.s.) ADPG Ppase.
PREMIX: A: 100 mM HEPES (pH 7), 0.5 mg/mL BSA, 0.5 mM Glc-1-P, 0.25 mM ATP subsaturating (near S0.5 value), 5 mM MgCl2, (0.2 U Pyrophosphatase))
(170 μL premix will allow 20 μL for analog vol., 10 μL of E)
II. ANALOG CONC.=5, 50, 500 μM (STOCK CONC.=5 mM) in 50 mM HEPES, pH 7, note that 20 μL of 5 mM in 200 μL assay will yield 500 μM final concentration to obtain 5
• ANALOG I: add 625 μL of HEPES buffer, mix thoroughly • ANALOG II: add 500 μL of HEPES buffer, mix thoroughly 1:10 DILUTION ALIQUOTS OF 5 mM STOCKS are prepared in order to generate stock solutions that will give 50 and 5 μM with the addition of 20 μL. 100 μL aliquots are stored at −20 C RBS ADPG PPASE WT ENZYME CONC.=17 mg/mL (use 1:8000 dilution in Dilution Buffer) The Following Assay Set of 11 are Utilized for Each Analog 1—BLANK (Premix A) 2—BLANK+50 μM ANALOG (A) 3—BLANK+500 μM ANALOG (A) 4—E CON (A) 5—E CON+F6P (B) 6—E+5 μM (A) 7—E+5 μM (B) 8—E+50 μM (A) 9—E+50 μM (B) 10—E+500 μM (A) 11—E+500 μM (B)
Purified Rb.s ADPG Ppase was assayed under standard conditions (0.25 mM ATP [˜S0.5 value], 0.5 mM Glc-1-P, 5 mM Mg, 100 mM HEPES, pH7) in the presence and absence of the activator F6P (1 mM) at 3 concentrations of the analogs: 5, 50, and 500 μM. Analog stock solutions were made in 50 mM HEPES, pH 7). These concentrations should be regarded as estimates as there could have been some breakdown of the compounds during 2 years of storage at −20° C. The analogs had no effect on the background cpm of the assays.

Assay [2] relates to bacteria. To be noted: cited from earlier work.
For assay [3] the following is noted: single rinse, mouthrinse, 10 subjects; cited from earlier work.
The mark [4] stands for this setting: 5 uM analog, premix B (+1 mM F6P).
[5] abbreviates: 50 uM analog, premix A (no F6P).
The mark [6] stands for this setting: 50 uM analog, premix B (+1 mM F6P).
Setting [7] is: 500 uM analog, premix A (no F6P).
[8] abbreviates: 500 uM analog, premix B (+1 mM F6P).

Bounds are passed on as bounds.

T1 sequence (Q9RNH7 whole entry): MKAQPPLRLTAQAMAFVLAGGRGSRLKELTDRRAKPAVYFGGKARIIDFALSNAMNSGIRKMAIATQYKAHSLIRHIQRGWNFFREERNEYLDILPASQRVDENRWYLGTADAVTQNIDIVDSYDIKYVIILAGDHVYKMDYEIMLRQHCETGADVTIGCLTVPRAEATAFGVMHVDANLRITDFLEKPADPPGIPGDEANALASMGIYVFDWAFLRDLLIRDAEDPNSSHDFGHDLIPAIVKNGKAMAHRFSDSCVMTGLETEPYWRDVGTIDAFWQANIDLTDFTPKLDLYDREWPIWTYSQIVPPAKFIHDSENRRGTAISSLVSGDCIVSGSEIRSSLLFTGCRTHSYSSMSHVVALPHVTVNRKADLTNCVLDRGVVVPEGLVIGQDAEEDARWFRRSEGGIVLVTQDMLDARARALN

For the compound `BP(=O)(OC[C@H]1O[C@@H](n2cnc3c(N)ncnc32)[C@H](O)[C@@H]1O)OP(=O)(O)O[C@H]1O[C@H](CO)[C@@H](O)[C@H](O)[C@H]1O` (single isomer, unassigned) [Analog I, adenosine-α-P-boranodiphosphoglucose], in assay [1] (5 uM analog, premix A (no F6P)), the “*2.2” value amounted to 0.854, the CPM turned out to be 380.67 CPM, the Units/mg is 4.02 Units/mg and the “cor. CPM” value was 320.34 CPM. Further, in assay [1] (5 uM analog, premix A (no F6P)), the “dil. Corr” value worked out at 68.339 nmol/min/µL, the nmol is 0.39 nmol, the nmol/min was 0.085 nmol/min and the nmol/min/uL was found to be 0.0085 nmol/min/µL. In assay [1] (setting [4]), the “*2.2” value is on record as 19.496, the CPM is listed as 7371.33 CPM, the Units/mg is reported as 91.75 Units/mg and the “cor. CPM” value came to 7311.00 CPM. Also, in assay [1] (setting [4]), the “dil. Corr” value came to 1559.680 nmol/min/µL, the nmol came to 8.86 nmol, the nmol/min is given as 1.950 nmol/min and the nmol/min/uL was 0.1950 nmol/min/µL. In assay [1] (setting [5]), the “*2.2” value was 0.755, the CPM amounted to 359.33 CPM, the Units/mg amounted to 3.55 Units/mg and the “cor. CPM” value was 283.00 CPM. Moreover, in assay [1] (setting [5]), the “dil. Corr” value came out at 60.373 nmol/min/µL, the nmol is given as 0.34 nmol, the nmol/min came to 0.075 nmol/min and the nmol/min/uL came out at 0.0075 nmol/min/µL. In assay [1] (setting [6]), the “*2.2” value is reported as 18.572, the CPM came to 7041.00 CPM, the Units/mg was 87.40 Units/mg and the “cor. CPM” value is 6964.67 CPM. Moreover, in assay [1] (setting [6]), the “dil. Corr” value came out at 1485.796 nmol/min/µL, the nmol was 8.44 nmol, the nmol/min is recorded as 1.857 nmol/min and the nmol/min/uL came out at 0.1857 nmol/min/µL. For the same compound, in assay [1] (setting [7]), the “*2.2” value came to 0.284, the CPM turned out to be 160.00 CPM, the Units/mg is 1.33 Units/mg and the “cor. CPM” value stood at 106.33 CPM. Also, in assay [1] (setting [7]), the “dil. Corr” value turned out to be 22.684 nmol/min/µL, the nmol came to 0.13 nmol, the nmol/min is on record as 0.028 nmol/min and the nmol/min/uL stood at 0.0028 nmol/min/µL. Also, in assay [1] (setting [8]), the “*2.2” value is given as 11.341, the CPM is on record as 4306.67 CPM, the Units/mg was found to be 53.37 Units/mg and the “cor. CPM” value was determined as 4253.00 CPM. In assay [1] (setting [8]), the “dil. Corr” value was determined as 907.307 nmol/min/µL, the nmol is recorded as 5.16 nmol, the nmol/min was determined as 1.134 nmol/min and the nmol/min/uL is 0.1134 nmol/min/µL. Moreover, in assay [1] (absence of the activator F6P), the “inhibition of Rb.s. ADPG Ppase” value is given as “about 75%”. For the same compound, in assay [1] (presence of F6P), the “inhibition of Rb.s. ADPG Ppase” value is listed as roughly 50%.

For the compound `BP(=O)(OC[C@H]1O[C@@H](n2cnc3c(N)ncnc32)[C@H](O)[C@@H]1O)OP(=O)(O)O[C@H]1O[C@H](CO)[C@@H](O)[C@H](O)[C@H]1O` (single isomer, unassigned) [Analog II, adenosine-α-P-boranodiphosphoglucose], in assay [1] (5 uM analog, premix A (no F6P)), the “*2.2” value is 1.122, the CPM was found to be 477.00 CPM, the Units/mg is 5.28 Units/mg and the “cor. CPM” value amounted to 420.67 CPM. In assay [1] (5 uM analog, premix A (no F6P)), the “dil. Corr” value is 89.743 nmol/min/µL, the nmol worked out at 0.51 nmol, the nmol/min is 0.112 nmol/min and the nmol/min/uL worked out at 0.0112 nmol/min/µL. In assay [1] (setting [4]), the “*2.2” value was 19.946, the CPM is reported as 7536.00 CPM, the Units/mg is reported as 93.86 Units/mg and the “cor. CPM” value stood at 7479.67 CPM. In assay [1] (setting [4]), the “dil. Corr” value came out at 1595.663 nmol/min/µL, the nmol turned out to be 9.07 nmol, the nmol/min is reported as 1.995 nmol/min and the nmol/min/uL came to 0.1995 nmol/min/µL. In addition, in assay [1] (setting [5]), the “*2.2” value was 0.930, the CPM was 399.67 CPM, the Units/mg is 4.38 Units/mg and the “cor. CPM” value worked out at 348.67 CPM. Besides, in assay [1] (setting [5]), the “dil. Corr” value is 74.383 nmol/min/µL, the nmol worked out at 0.42 nmol, the nmol/min came to 0.093 nmol/min and the nmol/min/uL turned out to be 0.0093 nmol/min/µL. In assay [1] (setting [6]), the “*2.2” value is 16.305, the CPM was 6165.33 CPM, the Units/mg was determined as 76.73 Units/mg and the “cor. CPM” value is 6114.33 CPM. In assay [1] (setting [6]), the “dil. Corr” value was 1304.390 nmol/min/µL, the nmol was found to be 7.41 nmol, the nmol/min was 1.630 nmol/min and the nmol/min/uL stood at 0.1630 nmol/min/µL. In addition, in assay [1] (setting [7]), the “*2.2” value is 0.376, the CPM is 194.33 CPM, the Units/mg is 1.77 Units/mg and the “cor. CPM” value stood at 141.00 CPM. In assay [1] (setting [7]), the “dil. Corr” value worked out at 30.080 nmol/min/µL, the nmol is reported as 0.17 nmol, the nmol/min is given as 0.038 nmol/min and the nmol/min/uL was found to be 0.0038 nmol/min/µL. Besides, in assay [1] (setting [8]), the “*2.2” value is given as 7.122, the CPM stood at 2724.00 CPM, the Units/mg worked out at 33.51 Units/mg and the “cor. CPM” value turned out to be 2670.67 CPM. Further, in assay [1] (setting [8]), the “dil. Corr” value worked out at 569.743 nmol/min/µL, the nmol was 3.24 nmol, the nmol/min was 0.712 nmol/min and the nmol/min/uL is 0.0712 nmol/min/µL. Further, the “inhibition of Rb.s. ADPG Ppase” value in assay [1] (absence of the activator F6P) is listed as “about 70%”. In addition, the “inhibition of Rb.s. ADPG Ppase” value in assay [1] (presence of F6P) is “about 70%”.

With `[F-].[Na+]` [NaF], the “increase in concentration necessary to be bacteriocidal” value in assay [2] (relative to inhibitory concentration) was 30 fold. Also, the “concentration required for inhibitory effects” value in assay [2] (vehicles) was greater than 100 μl/ml.

As for `CCCCC(CC)CNC(=N)NC(=N)NCCCCCCNC(=N)NC(=N)NCC(CC)CCCC` (stereo not drawn) [alexidine], in assay [3], the “return to pre-rinse levels after” value is 5 h.

For `N=C(NCCCCCCNC(=N)NC(=N)Nc1ccc(Cl)cc1)NC(=N)Nc1ccc(Cl)cc1.O=C(O)[C@H](O)[C@@H](O)[C@H](O)[C@H](O)CO.O=C(O)[C@H](O)[C@@H](O)[C@H](O)[C@H](O)CO` [chlorhexidine gluconate], the “return to pre-rinse levels after” value in assay [3] is 7 h.

Regarding `CCCCC(CC)CN1CN(CC(CC)CCCC)CC(C)(N)C1` (stereo not drawn) [hexetidine], in assay [3], the “return to pre-rinse levels after” value is 1.5 h.

(Values after US20060177385A1, “Compositions for treating dental caries caused by streptococcus mutans infection” (priority 2002, published 2006).)
